# Laboratory results published in US7141546B1, “CRFR2 selective ligands” (priority 2001, dated 2006).
# Where two headings read alike, the source gives them in different places. Bridge positions count the residues as written; N and C are the ends. Square brackets hold non-standard residues; d marks the D form. Peptide text beside a SMILES is read from it. αMeL = CC(C)C[C@](C)(N)C(=O)O; Nle = CCCC[C@H](N)C(=O)O
# What was measured:
# human CRFR2b = target: T1, human CRFR2b (Homo sapiens, UniProt Q13324); assay: Competitive displacement binding assay, stably transfected CHO cells expressing human CRFR2b; conditions: for binding selectivity, CRFR2 versus CRFR1: in words, binding to CRFR2 compared with CRFR1
# T1 construct: expressed in transfected cells
# T1 sequence (Q13324 1-438 isoform Q13324-2): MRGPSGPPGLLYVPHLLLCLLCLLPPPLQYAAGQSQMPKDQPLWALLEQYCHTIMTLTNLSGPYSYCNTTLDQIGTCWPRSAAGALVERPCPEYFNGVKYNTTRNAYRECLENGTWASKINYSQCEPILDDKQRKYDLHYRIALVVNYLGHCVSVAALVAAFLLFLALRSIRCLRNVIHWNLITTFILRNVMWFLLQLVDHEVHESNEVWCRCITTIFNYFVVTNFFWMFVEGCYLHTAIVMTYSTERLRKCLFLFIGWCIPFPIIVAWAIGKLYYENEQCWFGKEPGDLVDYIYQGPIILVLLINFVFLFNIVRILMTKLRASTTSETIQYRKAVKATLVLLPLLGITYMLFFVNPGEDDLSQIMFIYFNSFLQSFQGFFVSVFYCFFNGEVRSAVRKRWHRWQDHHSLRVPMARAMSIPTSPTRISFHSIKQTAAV
# Description: (§1) CRF receptors have now been cloned and are disclosed in the aforementioned Chen et al. article, in Perrin, M., et al., P.N.A.S, 92, 2969–2973 (March 1995), and in Lovenberg, T., et al., P.N.A.S., 92, 836–840 (January 1995). Binding affinity is a term used to refer to the strength of interaction between ligand and receptor. […] Ki (inhibitory binding affinity constant) is determined using a “standard” or “tracer” radioactive ligand and thus measures the displacement of the tracer from the receptor or binding protein; it is most properly expressed with reference to such tracer. However, so long as these assays are carefully performed under specific conditions with relatively low concentrations of receptor or the like, the calculated Ki will be substantially the same as its dissociation constant KD. […] It is particularly efficient to test for Ki because only a single tracer need be labelled, e.g. radioiodinated. […] Those reported hereinafter are derived using radioactively labeled [Tyr Glu^1, Nle^17]-Svg as a radioligand.
# (§2) Binding assays with cells expressing human CRFR1 are carried out as described in the Chen et al. P.N.A.S., supra. The affinities of test peptides for CRFR1 and CRFR2b stably expressed in CHO cells were determined by competitive displacement of ^125I-(Nle^21, Tyr^32) ovine CRF (for CRFR1) or of [^125I-Tyr^o-]Ucn (for CRFR2b) as described.
# CRFR1 [1] = target: T2, CRFR1 (Homo sapiens, UniProt P34998); assay: cAMP accumulation in CHO cells stably transfected with CRFR1 and treated with CRF; format: cell-based
# T2 construct: expressed in transfected cells
# T2 sequence (P34998 24-415): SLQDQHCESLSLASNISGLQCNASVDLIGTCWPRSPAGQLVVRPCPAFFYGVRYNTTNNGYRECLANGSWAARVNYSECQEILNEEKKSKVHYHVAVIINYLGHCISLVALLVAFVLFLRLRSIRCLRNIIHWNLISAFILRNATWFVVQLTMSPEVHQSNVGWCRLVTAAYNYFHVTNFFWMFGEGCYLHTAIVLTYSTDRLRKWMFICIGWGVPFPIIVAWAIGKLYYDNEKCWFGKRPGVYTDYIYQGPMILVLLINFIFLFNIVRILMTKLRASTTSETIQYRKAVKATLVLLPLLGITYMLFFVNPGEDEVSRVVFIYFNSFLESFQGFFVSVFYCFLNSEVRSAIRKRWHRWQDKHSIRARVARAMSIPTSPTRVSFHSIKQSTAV
# From the text: (§3) In addition to inhibiting CRF receptor binding, a candidate's CRF receptor antagonist activity may be established by the ability of the compound to antagonize an activity associated with CRF. For example, CRF is known to stimulate various biochemical processes, including adenylate cyclase activity. Therefore, compounds may be evaluated as CRF antagonists by their ability to antagonize CRF-stimulated adenylate cyclase activity by, for example, measuring cAMP levels. The inhibition of CRF-stimulated adenylate cyclase activity, determined by the assay described by G. Battaglia et al., Synapse 1:572 (1987), provides an assay for determining a compound's ability to antagonize CRF activity. Accordingly, CRF receptor antagonist activity may be determined by assay techniques which generally include an initial binding assay followed by such a cAMP screening protocol.
# as §2
# CRFR2 = target: T3, CRFR2 (Homo sapiens, UniProt Q13324); assay: cAMP accumulation in CHO cells stably transfected with CRFR2 and treated with CRF; format: cell-based; conditions: for antagonism of CRF activity with respect to CRFR2 (cAMP accumulation): CHO cells stably transfected with CRFR2, treated with CRF
# T3 construct: expressed in transfected cells
# T3 sequence (Q13324 1-438 isoform Q13324-2): T1 sequence (Q13324 1-438 isoform Q13324-2)
# From the text: as §3, with “protocol. […]” for “protocol.”
# CRFR1 [2] = target: T2, CRFR1; assay: Competitive displacement binding assay, cloned hCRFR1 expressed in CHO cells
# From the text: A candidate CRFR2 ligand is also easily evaluated in a binding assay using known CRF receptors, such as that described in Perrin, M., et al., Endocrinology, 118, 1171–1179 (1986). CRF receptors and the details of binding assays are discussed later in this specification. […] One such representative binding assay utilizing CRF-R1 receptor is described in Chen, et al., P.N.A.S., 90, 8967–8971 (October 1993).
# as §1, §2
Compound,"binding selectivity, CRFR2 versus CRFR1 (human CRFR2b)",antagonism of CRF activity with respect to CRFR1 (cAMP accumulation) (CRFR1 [1]),antagonism of CRF activity with respect to CRFR2 (cAMP accumulation) (CRFR2),also measured
"(cyclo 31–34) [Ac-Asp^8,D-Phe^11,Lys^34]-Ucn(8–40) [Example 10C]",very good selectivity,little or no effect,effectively antagonize CRF activity,"selectivity as Ucn antagonist (CRFR2; in words, compared with the parent Ucn analog): does not significantly alter its selectivity"
"CCCC[C@H](NC(=O)[C@H](CCCCN)NC(=O)[C@H](CCCNC(=N)N)NC(=O)[C@H](CC(C)C)NC(=O)[C@](C)(CC(C)C)NC(=O)[C@H](Cc1c[nH]cn1)NC(=O)[C@@H](Cc1ccccc1)NC(=O)[C@H](CO)NC(=O)[C@H](CC(C)C)NC(=O)[C@H](CC(=O)O)NC(C)=O)C(=O)N[C@H](C(=O)N[C@@H](CCC(=O)O)C(=O)N[C@H](C(=O)N[C@@H](CCC(=O)O)C(=O)N[C@@H](CCCCN)C(=O)N[C@@H](CCC(N)=O)C(=O)N[C@@H](CCC(=O)O)C(=O)N[C@@H](CCCCN)C(=O)N[C@@H](CCC(=O)O)C(=O)N[C@@H](CCCCN)C(=O)N[C@@H](CCC(N)=O)C(=O)N[C@@H](CCC(N)=O)C(=O)N[C@@H](C)C(=O)N[C@H]1CCC(=O)NCCCC[C@@H](C(=O)N[C@@H](CC(C)C)C(=O)N[C@@H](CC(C)C)C(=O)N[C@@H](CC(C)C)C(=O)N[C@@H](CC(=O)O)C(=O)N[C@@](C)(CC(C)C)C(=O)N[C@H](C(N)=O)[C@@H](C)CC)NC(=O)[C@H](CC(N)=O)NC(=O)[C@H](CC(N)=O)NC1=O)[C@@H](C)CC)[C@@H](C)CC [Example 2 cyclic peptide, (cyclo 31–34)[Ac-D-Phe^11, His^12, CML^13,39, Nle^17, Glu^31, Lys^34]-sauvagine(8–40)]",,little or no effect,effectively antagonize CRF activity,IC50 (CRFR1 [2]): > 500 nM; Ki (CRFR1 [2]): ~543 nM; IC50 (human CRFR2b): 1.3 nM
"(cyclo 31–34)[Ac-D-3 Pal^11, His^12, CML^13,39, Nle^17, Glu^31, Lys^34]-sauvagine(11–40) [Example 7]",,,effectively antagonize CRF activity,
"(cyclo 31–34)[Ac-D-Phe^11, His^12, CML^13,39, Nle^17, Glu^31, Orn^34]-sauvagine(11–40) [Example 8]",,,effectively antagonize CRF activity,
"(cyclo 31–34)[Ac-D-Tyr^11, His^12, CML^13,39, Nle^17, Glu^31, Lys^34]-sauvagine(11–40) [Example 4]",,,effectively antagonize CRF activity,
"(cyclo 31–34)[Ac-D-Cpa^11, His^12, CML^13,39, Nle^17, Glu^31, Lys^34]-sauvagine(11–40) [Example 5]",,,effectively antagonize CRF activity,
"(cyclo 31–34)[D-Phe^11, Lys^34]-Ucn(11–40) [Example 10A]",very good selectivity,little or no effect,effectively antagonize CRF activity,
"(cyclo 31–34) [D-Tyr^11, Lys^34], -Ucn(11–40) [Example 10]",very good selectivity,little or no effect,effectively antagonize CRF activity,
"[Ac-Asp^8,D-Phe^11,CML^13,39, Lys^34]-Ucn(8–40) [Example 10D]",very good selectivity,little or no effect,effectively antagonize CRF activity,
"(cyclo 31–34)[Ac-D-2Nal^11, His^12, CML^13,39, Nle^17, Glu^31, Lys^34]-sauvagine(11–40) [Example 6]",,,effectively antagonize CRF activity,
"CCCC[C@H](NC(=O)[C@H](CCC(=O)O)NC(=O)[C@H](CC(C)C)NC(=O)[C@@H](NC(=O)[C@H](CCC(=O)O)NC(=O)[C@H](CCCNC(=N)N)NC(=O)[C@H](CC(C)C)NC(=O)[C@](C)(CC(C)C)NC(=O)[C@H](Cc1c[nH]cn1)NC(=O)[C@H](N)Cc1ccccc1)C(C)C)C(=O)N[C@@H](C)C(=O)N[C@@H](CCCNC(=N)N)C(=O)N[C@@H](C)C(=O)N[C@@H](CCC(=O)O)C(=O)N[C@@H](CCC(N)=O)C(=O)N[C@@H](CC(C)C)C(=O)N[C@@H](C)C(=O)N[C@@H](CCC(N)=O)C(=O)N[C@@H](CCC(N)=O)C(=O)N[C@@H](C)C(=O)N[C@H]1CCC(=O)NCCCC[C@@H](C(=O)N[C@@H](CCCCN)C(=O)N[C@@H](CC(C)C)C(=O)N[C@@H](CCCC)C(=O)N[C@@H](CCC(=O)O)C(=O)N[C@@](C)(CC(C)C)C(=O)N[C@H](C(N)=O)[C@@H](C)CC)NC(=O)[C@H](CC(N)=O)NC(=O)[C@H](CO)NC1=O [Example 9B, (cyclo 32–35) [D-Phe^12, CML^14,40, Nle^21,38, Glu^32, Lys^35]-r/hCRF(12–41)] (H-[dF]H[αMeL]LREVLE[Nle]ARAEQLAQQAESNKKL[Nle]E[αMeL]I-NH2; lactam 21-24)",,,,IC50 (CRFR1 [2]; read-out: affinity of cloned hCRFR1 for the peptide (competitive displacement of bound radioligand)): > 100 nM
"[D-Phe^11, Gln^31,Lys(Ac)^34]-Ucn(11–40) [Example 10B]",very good selectivity,little or no effect,effectively antagonize CRF activity,
"(cyclo 31–34)[Ac-D-Leu^11, His^12, CML^13,39, Nle^17, Glu^31 Lys^34]-sauvagine(8–40) [Example 3]",,,effectively antagonize CRF activity,
